What was measured:
[1] = 75% RH and 41° C.
Method: Relative humidity (RH) stressing of CB-0406 tromethamine salt was performed by placing solid CB-0406 tromethamine salt in an RH chamber containing a saturated aqueous solution of sodium chloride (˜75% RH), potassium chloride (˜84% RH, RT/-82% RH, 40° C.), sodium bromide (˜58% RH, RT), or potassium sulfate (˜97% RH, RT/-96% RH, 40° C.), with excess salt present. The chamber was sealed and left at ambient temperature or placed in an oven at elevated temperature.

[2] = Description: CB-0406 tromethamine salt has been characterized using DSC, TGA, XRPD, hot stage microscopy, and solution ^1H NMR. CB-0406 tromethamine salt has also been tested by relative humidity stressing, and its solubility measured in simulated intestinal fluid without pancreatin.
[3] = at 95% relative humidity relative to weight at 5% relative humidity; approx. 0.2 equivalents of water; essentially completely reversible
Method: A DVS analysis of CB-0406 tromethamine salt was performed using a VTI SGA-100 Vapor Sorption Analyzer. The sample was not dried prior to analysis, and data were not corrected for the initial moisture content of the sample. Equilibrium criteria used for analysis were less than 0.010% weight change in 5 minutes, with a maximum equilibration time of 3 hours if the weight criterion was not met. […] Sodium chloride and polyvinylpyrrolidone were used as calibration standards.

CYP 2C9 = CYP 2C9 (Homo sapiens, UniProt P11712); conditions: tolbutamide hydroxylation assay; relative to (S)-enantiomer; cited from earlier work
Sequence of CYP 2C9 (P11712 whole entry, species assumed): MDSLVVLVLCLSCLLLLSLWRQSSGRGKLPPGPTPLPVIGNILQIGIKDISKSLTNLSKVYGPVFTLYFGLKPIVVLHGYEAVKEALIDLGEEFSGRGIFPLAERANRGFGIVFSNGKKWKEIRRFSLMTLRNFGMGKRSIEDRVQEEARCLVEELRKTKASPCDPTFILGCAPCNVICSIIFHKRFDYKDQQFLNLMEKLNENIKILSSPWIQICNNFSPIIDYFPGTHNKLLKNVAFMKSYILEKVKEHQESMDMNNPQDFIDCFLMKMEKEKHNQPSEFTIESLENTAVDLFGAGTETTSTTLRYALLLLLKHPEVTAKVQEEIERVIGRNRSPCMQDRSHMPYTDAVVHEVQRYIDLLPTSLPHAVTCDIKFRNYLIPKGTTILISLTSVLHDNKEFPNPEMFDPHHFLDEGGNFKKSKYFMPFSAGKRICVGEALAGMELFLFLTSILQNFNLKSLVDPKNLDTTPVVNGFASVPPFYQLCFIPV

Compound | appearance after RH stressing ([1]; at 7 and 9 days) | XRPD analysis after RH stressing ([1]; at 18 and 46 days, some increase in low angle scattering background) | solubility ([2]; simulated intestinal fluid without pancreatin) | solubility in simulated intestinal fluid, fold greater than that of CB-0406 ([2]; simulated intestinal fluid, relative to CB-0406) | net weight gain (DVS) [3] | fold less active as an inhibitor of CYP 2C9 than its (S)-enantiomer (CYP 2C9)
1,3-dihydroxy-2-(hydroxymethyl)propan-2-aminium (2R)-2-(4-chlorophenyl)-2-[3-(trifluoromethyl)phenoxy]acetate [CB-0406 tromethamine salt] | free-flowing solid | consistent with CB-0406 tromethamine salt | > 200 mg/mL | ≥ 60 fold | less than 0.8% | 
O=C(O)[C@H](Oc1cccc(C(F)(F)F)c1)c1ccc(Cl)cc1 [CB-0406, (2R)-2-(4-chlorophenyl)-2-[3-(trifluoromethyl)phenoxy]acetic acid] |  |  |  |  |  | approximately 20 fold
